From ChEMBL document CHEMBL4811216, “Chemotherapy for human schistosomiasis: how far have we come? What's new? Where do we go from here?” (RSC Med Chem, 2020)

Legend:
Schistosoma mansoni [1] = test: Antischistosomal activity against female Schistosoma mansoni Egyptian strain infected in BALB/c mouse assessed as reduction in female worm burden at 300 mg/kg, po measured after 2 weeks by scanning electron microscopy relative to control; type: functional; parameters: scale not given: the % may be the effect or the level left
Schistosoma mansoni [2] = test: Antischistosomal activity against female Schistosoma mansoni Egyptian strain infected in BALB/c mouse assessed as reduction in total worm burden at 200 mg/kg, po measured after 2 weeks by scanning electron microscopy; type: functional; parameters: scale not given: the % may be the effect or the level left
Schistosoma mansoni [3] = test: Antischistosomal activity against female Schistosoma mansoni Egyptian strain infected in BALB/c mouse assessed as reduction in male worm burden at 300 mg/kg, po measured after 2 weeks by scanning electron microscopy relative to control; type: functional; parameters: scale not given: the % may be the effect or the level left
Schistosoma mansoni [4] = test: Antischistosomal activity against Schistosoma mansoni LE infected in BALB/c mouse assessed as reduction in worm burden at 10 mg/kg, ip administered for 5 consecutive days starting from day 1 post infection by microscopic method relative to control; type: functional; parameters: scale not given: the % may be the effect or the level left
Schistosoma mansoni [5] = test: Antischistosomal activity against female Schistosoma mansoni Egyptian strain infected in BALB/c mouse assessed as reduction in total worm burden at 300 mg/kg, po measured after 2 weeks by scanning electron microscopy relative to control; type: functional; parameters: scale not given: the % may be the effect or the level left
Schistosoma mansoni [6] = test: Antischistosomal activity against female Schistosoma mansoni Egyptian strain infected in BALB/c mouse assessed as reduction in worm burden at 200 mg/kg, po measured after 2 weeks; type: functional; parameters: scale not given: the % may be the effect or the level left
Schistosoma mansoni [7] = test: Antischistosomal activity against Schistosoma mansoni LE infected in BALB/c mouse assessed as reduction in worm burden at 10 mg/kg, ip administered for 5 consecutive days starting from day 23 by microscopic method relative to control; type: functional; parameters: scale not given: the % may be the effect or the level left
Schistosoma mansoni [8] = test: Antischistosomal activity against Schistosoma mansoni infected in Swiss albino mouse assessed as reduction in worm burden at 20 mg/kg, po administered for 5 days relative to control; type: functional; parameters: scale not given: the % may be the effect or the level left; conditions: time 5 day
Schistosoma mansoni [9] = test: Antischistosomal activity against female Schistosoma mansoni assessed as worm killing effect at 100 uM measured after 24 hrs by phase-contrast microscopy relative to control; type: functional
Schistosoma mansoni [10] = test: Potentiation of praziquantel-induced antischistosomal activity against Schistosoma mansoni infected in Swiss albino mouse assessed as worm burden at 20 mg/kg, po administered for 5 days (reference value: 60%); type: functional; conditions: time 5 day
Schistosoma mansoni [11] = test: Antischistosomal activity against Schistosoma mansoni assessed as worm killing effect at 100 uM measured after 24 hrs by phase-contrast microscopy relative to control; type: functional
Schistosoma mansoni [12] = test: Antischistosomal activity against male Schistosoma mansoni assessed as worm killing effect at 100 uM measured after 24 hrs by phase-contrast microscopy relative to control; type: functional
Schistosoma mansoni [13] = test: Antischistosomal activity against Schistosoma mansoni infected in Swiss albino mouse assessed as reduction in intestinal tissue egg burden at 20 mg/kg, po administered for 5 days relative to control; type: functional; parameters: scale not given: the % may be the effect or the level left; conditions: time 5 day
Schistosoma mansoni [14] = test: Potentiation of praziquantel-induced antischistosomal activity against Schistosoma mansoni infected in Swiss albino mouse assessed as intestinal egg burden at 20 mg/kg, po administered for 5 days (reference value: 67%); type: functional; conditions: time 5 day
Schistosoma mansoni [15] = test: Antischistosomal activity against adult Schistosoma mansoni LE assessed as seperation of male and female worms at 10 uM measured after 24 hrs by inverted microscopy relative to control; type: functional
Schistosoma mansoni [16] = test: Antischistosomal activity against adult Schistosoma mansoni LE assessed as reduction in motor activity at 50 uM measured after 24 hrs by inverted microscopy relative to control; type: functional; parameters: scale not given: the % may be the effect or the level left
Schistosoma mansoni [17] = test: Antischistosomal activity against adult Schistosoma mansoni LE assessed as reduction in motor activity at 10 uM measured after 24 hrs by inverted microscopy relative to control; type: functional; parameters: scale not given: the % may be the effect or the level left
Schistosoma mansoni [18] = test: Antischistosomal activity against Schistosoma mansoni at 50 uM measured after 120 hrs relative to control; type: functional
Schistosoma mansoni [19] = test: Antischistosomal activity against Schistosoma mansoni BH infected in Swiss Webster mouse assessed as worm burden reduction at 100 mg/kg, po administered for 5 consecutive days and measured 15 days post-treatment (reference value: 19.8%); type: functional; parameters: scale not given: the % may be the effect or the level left; conditions: time 15 day
Schistosoma mansoni [20] = test: Antischistosomal activity against Schistosoma mansoni LE infected in BALb/C mouse assessed as reduction in worm burden at 400 mg/kg, po administered as single dose and measured after 15 days relative to control; type: functional; parameters: scale not given: the % may be the effect or the level left; conditions: time 15 day
Schistosoma mansoni [21] = test: Antischistosomal activity against adult Schistosoma mansoni LE assessed as worm mortality at 100 ug/ml measured after 96 hrs by inverted microscopic method relative to control; type: functional
Schistosoma mansoni [22] = test: Antischistosomal activity against adult Schistosoma mansoni LE assessed as worm mortality measured after 96 hrs by inverted microscopic method; type: functional, organism-based
Schistosoma mansoni [23] = test: Antischistosomal activity against Schistosoma mansoni LE larva at […] measured within 48 hrs by inverted microscopic method relative to control; type: functional; conditions: dose 2.5 µg/ml
Schistosoma mansoni [24] = test: Antischistosomal activity against juvenile Schistosoma mansoni Puerto Rican incubated for 72 hrs by microscopic method; type: functional, organism-based
Schistosoma mansoni [25] = test: Antischistosomal activity against Schistosoma mansoni Puerto Rican schistosomula assessed as effect on worm motility measured after 72 hrs; type: functional, organism-based
Schistosoma mansoni [26] = test: Antischistosomal activity against adult Schistosoma mansoni Puerto Rican incubated for 72 hrs by microscopic method; type: functional, organism-based
Schistosoma mansoni [27] = test: Antischistosomal activity against Schistosoma mansoni Puerto Rican schistosomula assessed as effect on worm phenotype measured after 72 hrs; type: functional, organism-based
ATP-diphosphohydrolase 1 = target: T1, ATP-diphosphohydrolase 1 (Schistosoma mansoni, UniProt Q7YTA4); test: Inhibition of Schistosoma mansoni ATPDase1 incubated for 30 mins
T1 sequence (Q7YTA4 whole entry): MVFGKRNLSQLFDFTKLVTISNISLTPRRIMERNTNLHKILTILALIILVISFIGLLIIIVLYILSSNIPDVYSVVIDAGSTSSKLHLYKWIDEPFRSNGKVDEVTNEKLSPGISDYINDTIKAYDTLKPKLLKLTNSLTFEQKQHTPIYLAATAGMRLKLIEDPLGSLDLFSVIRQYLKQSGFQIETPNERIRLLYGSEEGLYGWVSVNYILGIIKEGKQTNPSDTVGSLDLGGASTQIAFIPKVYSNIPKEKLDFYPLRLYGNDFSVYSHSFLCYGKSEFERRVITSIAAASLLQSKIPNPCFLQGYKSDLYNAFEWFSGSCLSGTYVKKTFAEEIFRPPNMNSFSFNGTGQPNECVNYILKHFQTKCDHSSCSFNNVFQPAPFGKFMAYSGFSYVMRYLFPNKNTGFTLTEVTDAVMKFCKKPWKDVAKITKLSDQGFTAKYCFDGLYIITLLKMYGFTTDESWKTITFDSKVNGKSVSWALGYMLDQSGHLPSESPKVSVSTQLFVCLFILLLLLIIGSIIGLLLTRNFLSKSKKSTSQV

Schistosoma mansoni [28] = test: Antischistosomal activity against Schistosoma mansoni BH infected in Balb/c mouse assessed as reduction in worm burden at 400 mg/kg, po measurement after 2 weeks; type: functional; parameters: scale not given: the % may be the effect or the level left
Schistosoma mansoni [29] = test: Antischistosomal activity against female Schistosoma mansoni LE incubated for 24 hrs by MTT assay; type: functional
CHO-K1 = test: Cytotoxicity against CHO-K1 cells incubated for 24 hrs by colorimetric assay; type: functional, cell-based; conditions: Cricetulus griseus, CHO-K1, 24 h
Schistosoma mansoni [30] = test: Antischistosomal activity against male Schistosoma mansoni LE incubated for 24 hrs by MTT assay; type: functional

CC(C)Oc1ccc(-c2ccc(-c3nc4ccccc4[nH]3)s2)cc1
Activity (Schistosoma mansoni [1]): 76.5% | Activity (Schistosoma mansoni [2]): 44% | Activity (Schistosoma mansoni [3]): 34.6% | Activity (Schistosoma mansoni [4]): 34.6% | Activity (Schistosoma mansoni [5]): 55.3% | Activity (Schistosoma mansoni [6]): 66% | Activity (Schistosoma mansoni [7]): 55.3%

Brc1ccc(-c2c[nH]c(-c3ccccn3)n2)cc1
Activity (Schistosoma mansoni [8]): 29% | Activity (Schistosoma mansoni [9]): 0% | Activity (Schistosoma mansoni [10]): 96% | Activity (Schistosoma mansoni [11]): 56% | Activity (Schistosoma mansoni [12]): 100% | Activity (Schistosoma mansoni [13]): 35% | Activity (Schistosoma mansoni [14]): 83%

COc1cc(C[C@@H]2C(=O)OC[C@H]2Cc2cc(OC)c3c(c2)OCO3)cc(OC)c1OC
Activity (Schistosoma mansoni [15]): >85% | Activity (Schistosoma mansoni [16]): >75% | Activity (Schistosoma mansoni [17]): 100%

CN(Nc1ccc(Cl)cc1)C1NC(=O)N(Cc2ccccc2)C1=S (configuration not stated)
Activity (Schistosoma mansoni [18]): 100% | Activity (Schistosoma mansoni [19]): 70.5%

O=C1c2ccccc2C(=O)N1Nc1nc(-c2ccc(Cl)cc2Cl)cs1
Activity (Schistosoma mansoni [20]): 85% | mortality at 100 µg/mL (Schistosoma mansoni [21]): 100% | EC50 (Schistosoma mansoni [22]): 50.6 µM | mortality at […] (Schistosoma mansoni [23]): 100%

CC1(C)CCC[C@]2(C)C(CC[C@@](C)(O)/C=C/c3ccc(F)cc3)[C@](C)(O)CC[C@@H]12 (some centres not stated)
IC50 (Schistosoma mansoni [24]): < 2 µM | IC50 (Schistosoma mansoni [25]): < 2 µM | IC50 (Schistosoma mansoni [26]): 9.4 µM | IC50 (Schistosoma mansoni [27]): < 2 µM

COc1ccc(/C=C/C(=O)c2ccccc2O)cc1
IC50 (ATP-diphosphohydrolase 1): 30.6 µM | Activity (Schistosoma mansoni [28]): 32.8%

C=CC(C)(C)c1cc(/C=C/C(=O)c2ccc(O)cc2)c(OC)cc1O [LICOAGROCHACONE A]
LC50 (Schistosoma mansoni [29]): 9.12 µM | IC50 (CHO-K1): 508 µM | LC50 (Schistosoma mansoni [30]): 9.52 µM
